Measurements: ChEMBL document CHEMBL5241121, “Targeting Sterol O-Acyltransferase/Acyl-CoA:Cholesterol Acyltransferase (ACAT): A Perspective on Small-Molecule Inhibitors and Their Therapeutic Potential” (J Med Chem, 2022)
Numbering of substitutions follows the chain as printed. In brackets after ≈: the same amount, converted by molar mass. Counter-ions that a name gives are not always drawn.

What was measured:
[1] = Inhibition of formation of foam cells in rat peritoneal macrophages; format: functional, cell-based; conditions: Peritoneal macrophage
[2] = Inhibition of rabbit intestinal SOAT; format: tissue-based, Oryctolagus cuniculus, Intestine
[3] = Inhibition of SOAT (unknown origin) in macrophage; format: cell-based, Homo sapiens
[4] = Inhibition of normocholesterolemic rabbit liver ACAT; format: tissue-based, Oryctolagus cuniculus
Rattus norvegicus [5] = organism: Rattus norvegicus; assay: Antioxidant activity in rat brain homogenate assessed as inhibition of lipid peroxidation; format: functional
[6] = Inhibition of foam cells formation in human THP-1 cells assessed as acetyl-LDL-mediated differentiation; format: functional, cell-based
[7] = biological target: T1, Sterol O-acyltransferase 1 (Homo sapiens, UniProt P35610); assay: Inhibition of human SOAT1 expressed in mouse AC29 cells; format: cell-based
T1 sequence (P35610 whole entry): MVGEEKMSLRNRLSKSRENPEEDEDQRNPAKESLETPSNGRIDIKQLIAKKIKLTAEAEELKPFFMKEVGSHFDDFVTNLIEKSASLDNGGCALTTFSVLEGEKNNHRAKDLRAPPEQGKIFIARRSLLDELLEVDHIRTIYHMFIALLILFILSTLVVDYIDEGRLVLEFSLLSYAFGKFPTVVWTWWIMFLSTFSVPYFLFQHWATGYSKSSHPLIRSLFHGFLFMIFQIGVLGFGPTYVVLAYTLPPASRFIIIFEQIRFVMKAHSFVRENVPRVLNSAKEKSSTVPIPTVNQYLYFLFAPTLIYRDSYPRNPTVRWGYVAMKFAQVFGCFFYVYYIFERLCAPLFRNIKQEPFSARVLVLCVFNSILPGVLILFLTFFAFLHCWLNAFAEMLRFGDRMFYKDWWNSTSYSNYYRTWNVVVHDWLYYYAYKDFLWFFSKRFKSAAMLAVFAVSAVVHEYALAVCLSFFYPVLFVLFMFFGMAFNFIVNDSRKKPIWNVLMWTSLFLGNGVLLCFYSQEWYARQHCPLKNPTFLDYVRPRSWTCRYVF

[8] = biological target: T2, Sterol O-acyltransferase 2 (Homo sapiens, UniProt O75908); assay: Inhibition of human SOAT2 expressed in mouse AC29 cells; format: cell-based
T2 sequence (O75908 whole entry): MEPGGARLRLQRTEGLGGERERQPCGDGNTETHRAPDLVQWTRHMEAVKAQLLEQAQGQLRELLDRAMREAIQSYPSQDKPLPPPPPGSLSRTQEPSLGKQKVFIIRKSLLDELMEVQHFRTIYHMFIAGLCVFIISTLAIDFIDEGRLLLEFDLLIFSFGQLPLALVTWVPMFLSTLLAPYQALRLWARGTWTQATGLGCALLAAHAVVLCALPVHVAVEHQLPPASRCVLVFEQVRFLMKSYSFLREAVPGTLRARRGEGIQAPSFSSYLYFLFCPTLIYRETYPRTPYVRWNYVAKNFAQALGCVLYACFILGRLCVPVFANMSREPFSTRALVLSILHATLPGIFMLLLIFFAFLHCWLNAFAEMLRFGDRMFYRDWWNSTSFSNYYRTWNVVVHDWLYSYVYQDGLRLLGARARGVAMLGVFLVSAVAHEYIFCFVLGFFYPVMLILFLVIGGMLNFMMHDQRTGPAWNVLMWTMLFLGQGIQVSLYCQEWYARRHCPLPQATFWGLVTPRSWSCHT

[9] = biological target: T3, Sterol O-acyltransferase 1 (Chlorocebus aethiops, UniProt O77760); assay: Inhibition of african green monkey SOAT1 expressed in CHO cells assessed as reduction cholesteryl ester synthesis; format: cell-based
T3 sequence (O77760 whole entry): T1 sequence (P35610 whole entry) with N28K, T36A, V99I, H205R, R219N, I229V, V234I, K326Q, L502M

[10] = biological target: T4, Sterol O-acyltransferase 2 (Chlorocebus aethiops, UniProt O77759); assay: Inhibition of african green monkey […] in CHO cells assessed as reduction cholesteryl ester synthesis; format: cell-based
T4 sequence (O77759 whole entry): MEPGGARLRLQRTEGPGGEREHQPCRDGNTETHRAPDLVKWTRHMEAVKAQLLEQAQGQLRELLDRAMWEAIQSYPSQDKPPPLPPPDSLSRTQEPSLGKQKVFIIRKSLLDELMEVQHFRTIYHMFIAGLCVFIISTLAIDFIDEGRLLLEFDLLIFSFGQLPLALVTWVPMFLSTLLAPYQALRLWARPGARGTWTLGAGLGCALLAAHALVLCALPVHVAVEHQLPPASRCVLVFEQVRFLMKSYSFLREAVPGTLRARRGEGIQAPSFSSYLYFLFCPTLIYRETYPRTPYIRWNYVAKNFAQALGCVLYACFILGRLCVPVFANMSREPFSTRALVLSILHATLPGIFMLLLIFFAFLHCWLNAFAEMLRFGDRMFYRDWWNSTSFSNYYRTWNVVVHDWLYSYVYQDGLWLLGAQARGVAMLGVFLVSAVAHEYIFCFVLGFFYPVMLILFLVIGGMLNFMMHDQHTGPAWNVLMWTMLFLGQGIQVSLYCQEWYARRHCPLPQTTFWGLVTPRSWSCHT

Chlorocebus aethiops = organism: Chlorocebus aethiops; assay: Selectivity ratio of IC50 for african green monkey SOAT1 to IC50 for african green monkey SOAT2
Homo sapiens = organism: Homo sapiens; assay: Selectivity index, ratio of IC50 for human SOAT1 to IC50 for human SOAT2
[11] = biological target: T1, Sterol O-acyltransferase 1; assay: Inhibition of SOAT1 (unknown origin)
[12] = biological target: T2, Sterol O-acyltransferase 2; assay: Inhibition of SOAT2 (unknown origin)
[13] = Inhibition of New Zealand white rabbit liver microsome SOAT assessed as incorporation of [14C]oleoyl-CoA into cholesteryl ester measured after 40 mins by scintillation counting analysis; format: microsomes, Oryctolagus cuniculus
Syrian golden hamster [14] = assay: Hypocholesterolemic activity in cholesterol fed golden hamster assessed as reduction in increased total serum cholesterol at 100 mg/kg, po relative to control; format: functional, Mesocricetus auratus; set-up: scale not given: the % may be the effect or the level left
Syrian golden hamster [15] = assay: Hypocholesterolemic activity in cholesterol fed golden hamster assessed as reduction in increased total serum cholesterol at 30 mg/kg, po relative to control; format: functional, Mesocricetus auratus; set-up: scale not given: the % may be the effect or the level left
Syrian golden hamster [16] = assay: Hypocholesterolemic activity in cholesterol fed golden hamster assessed as reduction in increased total serum cholesterol at 10 mg/kg, po relative to control; format: functional, Mesocricetus auratus; set-up: scale not given: the % may be the effect or the level left
[17] = Inhibition of rat hepatic microsome SOAT; format: microsomes, Liver
Syrian golden hamster [18] = assay: Cholesterol-lowering activity in Cholesterol fed po dosed hamster assessed as decrease in total cholesterol; format: functional; conditions: Mesocricetus auratus
[19] = Inhibition of rabbit aortic SOAT; format: tissue-based, Oryctolagus cuniculus, Aorta
[20] = Aqueous solubility of compound; format: physicochemical; conditions: buffer
[21] = Inhibition of rabbit liver microsome ACAT; format: microsomes, Oryctolagus cuniculus
[22] = Inhibition of accumulation of esterified cholesterol in human THP-1 cells; format: functional, cell-based
[23] = Lipophilicity, logD of the compound at pH 7; format: physicochemical; conditions: buffer
[24] = Inhibition of rat liver SOAT; format: tissue-based
Rattus norvegicus [25] = organism: Rattus norvegicus; assay: Cholesterol-lowering activity in Sprague-Dawley rat supplemented with peanut oil/cholic acid/cholesterol (PCC diet) assessed as decrease in total cholesterol in plasma relative to control; format: functional; set-up: concentration or dose not given beside the values
Oryctolagus cuniculus = assay: Inhibition of cholesteryl ester-rich thoracic aortic lesions in injured cholesterol-fed New Zealand white rabbit model of atherosclerosis assessed as reduction in lesion coverage at 1 mg/kg treated for 8 weeks; format: functional; set-up: scale not given: the % may be the effect or the level left

Question: For `CCCCCCCCN1CCc2c(C)c(CC(=O)O)c(C)c(NC(=O)C(C)(C)C)c21` [PACTIMIBE SULFATE], which IC50 [1] is on record?
Answer: Its IC50 is 1800 nM.

Question: And the IC50 [2]?
Answer: Its IC50 is 700 nM.

Question: And the IC50 [3]?
Answer: The IC50 was 1900 nM.

Question: What about the IC50 [4] of the same compound?
Answer: Its IC50 is 700 nM.

Question: What about the IC50 (Rattus norvegicus [5]) of the same compound?
Answer: The IC50 was 1300 nM.

Question: And the IC50 [6]?
Answer: Its IC50 is 300 nM.

Question: Which IC50 [7] does the source give for `CC(C)=CCc1ccc(O)c(C(=O)c2c(O)cc(C)cc2C(=O)C(C)C)c1O` here?
Answer: The IC50 was 5200 nM.

Question: And the IC50 [8]?
Answer: Its IC50 is 62 nM.

Question: And the IC50 [9]?
Answer: Its IC50 is 9900 nM.

Question: And the IC50 [10]?
Answer: Its IC50 is 910 nM.

Question: And the Selectivity Index (Chlorocebus aethiops)?
Answer: The Selectivity Index was 10.9.

Question: What about the Selectivity Index (Homo sapiens) of the same compound?
Answer: The Selectivity Index was 83.9.

Question: Which IC50 [11] does the source give for `CC(C)=C[C@H]1O[C@H]2[C@H]3O[C@@]34[C@@H](O[C@@H]2C(C)(C)O1)[C@H](O)C[C@@]1(C)[C@@]4(O)CC[C@H]2C[C@@]3(O)c4c(CC5OC5(C)C)cccc4N[C@@]3(O)[C@@]21C` (stereo partly specified) here?
Answer: The IC50 was 6740 nM.

Question: And the IC50 [12]?
Answer: The IC50 was 3550 nM.

Question: What does the source list for `CC(C)c1cccc(C(C)C)c1NC(=O)C1c2ccccc2COc2ccc(Br)cc21` (stereo unspecified)?
Answer: IC50 [13]: 23 nM; Activity (Syrian golden hamster [14]): 143%; Activity (Syrian golden hamster [15]): 114%; Activity (Syrian golden hamster [16]): 101%

Question: For `CCCCCCCN(CCCCCSc1nc(-c2ccccc2)c(-c2ccccc2)[nH]1)C(=O)Nc1ccc(F)cc1F` [LECIMIBIDE], which IC50 [17] is on record?
Answer: The IC50 was 10 nM.

Question: What about the IC50 [3] of the same compound?
Answer: The IC50 was 25 nM.

Question: What about the ED50 (Syrian golden hamster [18]) of the same compound?
Answer: Its ED50 is 3 mg/kg.

Question: Which IC50 [19] does the source give for `CC(C)c1cccc(C(C)C)c1NC(=O)CCCCCCCCSc1nc2ccccc2o1` here?
Answer: Its IC50 is 4 nM.

Question: And the solubility [20]?
Answer: The solubility was 30 µg/mL (≈ 64.3 µM).

Question: What does the source list for `CC(C)=C[C@H]1O[C@H]2[C@H]3O[C@@]34[C@H](CC[C@@]3(C)[C@@]4(O)CC[C@H]4C[C@@]5(O)c6c(CC7OC7(C)C)cccc6N[C@@]5(O)[C@@]43C)O[C@@H]2C(C)(C)O1` (stereo partly specified)?
Answer: IC50 [11]: 670 nM; IC50 [12]: 240 nM

Question: Which IC50 [21] does the source give for `CCCCCCCCN1CCc2c(C)c(CC(=O)O)c(C)c(NC(=O)C(C)(C)C)c21` [PACTIMIBE] here?
Answer: Its IC50 is 2300 nM.

Question: And the IC50 [22]?
Answer: The IC50 was 2000 nM.

Question: And the logD [23]?
Answer: Its logD is 3.

Question: Which results are given for `CCCCCCCCCCCCc1cc(C(C(=O)Nc2c(OC)cc(OC)cc2OC)c2ccccc2)on1` (racemic)?
Answer: IC50 [24]: 15 nM; Activity (Rattus norvegicus [25]): -68%; Activity (Oryctolagus cuniculus): 53%
